From patent US20050148534A1, “Small molecule compositions and methods for increasing drug efficiency using compositions thereof” (priority 2003, published 2005)

Key:
[1] = molecular target: deoxycytidine kinase (dCK) (Homo sapiens, UniProt P27707); details: cited from earlier work; for dCK: substrate activity, literature (Johansson et al.; Eriksson et al.; Wang et al.), source per Table 3
TK2 = molecular target: T1, TK2 (Homo sapiens, UniProt O00142); parameters: unit not given here; details: substrate activity; literature (Johansson et al.; Eriksson et al.; Wang et al.), source per Table 3; cited from earlier work
T1 sequence (O00142 34-265): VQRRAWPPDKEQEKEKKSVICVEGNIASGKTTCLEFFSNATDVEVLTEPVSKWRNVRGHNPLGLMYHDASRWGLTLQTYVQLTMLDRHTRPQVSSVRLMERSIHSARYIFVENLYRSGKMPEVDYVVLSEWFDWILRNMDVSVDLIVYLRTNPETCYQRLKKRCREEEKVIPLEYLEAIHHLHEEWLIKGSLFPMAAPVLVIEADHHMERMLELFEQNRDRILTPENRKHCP

tubulin = test: Fluorescence-based microtubule polymerization assay (MPA); assay type: biochemical; details: mean percentage of paclitaxel or vinblastine activity; 0.75-10 micromolar
Excerpt: Drug-linker constructs may further be screened using functional assays predictive of biological activity. […] Tubulin assembly or inhibition thereof may be monitored by fluorescence using the CytoDYNAMIX Screen™ 10 kit available from Cytoskeleton (1830 S. Acoma St., Denver, Colo.). […] Emission is monitored at 405 nm with excitation at 360 nm. […] Tubulin assembly or inhibition may also be monitored by light scattering which is approximated by the apparent absorption at 350 nm. For paclitaxel drug conjugates BSA is employed to prevent aggregation and glycerol, which is a tubulin polymerization enhancer, is omitted from the kit to increase the signal to noise ratio.
The assay kit (#BK011) was purchased from Cytoskeleton (Denver, Colo.). The assays were carried out according to the manufacturer's instructions, except that 1 mg/ml BSA (Sigma #A3059) was included in all assays. […] Parent drugs and conjugates were tested at 0.75, 1.5, 3 and 10 micromolar final concentration and results represent a comparison of conjugate and parent drug curves obtained from the linear range of the dose responses.

Chain of deoxycytidine kinase (dCK) (P27707 whole entry, species assumed): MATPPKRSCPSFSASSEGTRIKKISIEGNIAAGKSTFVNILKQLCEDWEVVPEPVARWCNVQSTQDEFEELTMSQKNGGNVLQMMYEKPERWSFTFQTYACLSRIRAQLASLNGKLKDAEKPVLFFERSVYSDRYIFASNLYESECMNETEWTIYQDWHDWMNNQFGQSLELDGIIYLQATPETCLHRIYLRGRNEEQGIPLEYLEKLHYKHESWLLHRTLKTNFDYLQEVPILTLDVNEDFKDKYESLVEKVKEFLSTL

Compound | dCK [1] | TK2 (TK2) | also measured
Nc1nc(=O)n([C@H]2C[C@H](O)[C@@H](CO)O2)cc1-c1ccccn1 [R2 = 2-pyridyl, X = C] | <1 | 7 | 
Nc1nc(=O)n([C@H]2C[C@H](O)[C@@H](CO)O2)cc1F [R2 = F, X = C] | 20 | 90 | 
Cc1cn([C@@H]2C[C@H](O)[C@@H](CO)O2)c(=O)[nH]c1=O [α-D-Thy] |  | 2.4 | 
Nc1nc(=O)n([C@H]2C[C@H](O)[C@@H](CO)O2)cc1-c1cccs1 [R2 = 2-thienyl, X = C] | 2 | 30 | 
Cc1cn([C@@H]2O[C@H](CO)[C@@H](O)[C@@H]2O)c(=O)[nH]c1=O [R2 = CH3, R5 = OH (araT), araT] |  | 60 | 
CC[C@]1(O)C[C@@H]2CN(CCc3c([nH]c4ccccc34)[C@@](C(=O)OC)(c3cc4c(cc3OC)N(C)[C@H]3[C@@](O)(C(=O)NCCCCCCNC(=O)OC(C)(C)C)[C@H](O)[C@]5(CC)C=CCN6CC[C@]43[C@@H]65)C2)C1 [VBL-3Am-ALK(6)-NH(B)] |  |  | Ave. MPA Act (tubulin): A (A<60)
CC[C@]1(O)C[C@@H]2CN(CCc3c([nH]c4ccccc34)[C@@](C(=O)OC)(c3cc4c(cc3OC)N(C)[C@H]3[C@@](O)(C(=O)NCCCCCCCCCCCCN)[C@H](O)[C@]5(CC)C=CCN6CC[C@]43[C@@H]65)C2)C1 [VBL-3Am-ALK(12)-NH2] |  |  | Ave. MPA Act (tubulin): B (B=60-100)
Nc1ccn([C@@H]2C[C@H](O)[C@@H](CO)O2)c(=O)n1 [α-D-dC] |  | 1.8 | 
Cc1cn([C@H]2C[C@@H](O)[C@H](CO)O2)c(=O)[nH]c1=O [α-L-Thy] |  | 1.5 | 
Nc1nc(=O)n([C@H]2C[C@H](O)[C@@H](CO)O2)cc1-c1ccsc1 [R2 = 3-thienyl, X = C] | <1 | 30 | 
O=c1[nH]c(=O)n([C@@H]2O[C@H](CO)[C@@H](O)[C@@H]2O)cc1C1CC1 [R2 = cyclopropyl, R5 = OH] |  | 15 | 
Nc1cn([C@@H]2O[C@H](CO)[C@@H](O)[C@H]2O)c(=O)[nH]c1=O [R2 = NH2, R4 = H, R3 = OH, 5-amino-uridine] |  |  | activity towards dCK [1]: 17%
CC[C@]1(O)C[C@@H]2CN(CCc3c([nH]c4ccccc34)[C@@](C(=O)OC)(c3cc4c(cc3OC)N(C)[C@H]3[C@@](O)(C(=O)NCCCCCCCCCCCCNC(=O)OC(C)(C)C)[C@H](O)[C@]5(CC)C=CCN6CC[C@]43[C@@H]65)C2)C1 [VBL-3Am-ALK(12)-NH(B)] |  |  | Ave. MPA Act (tubulin): A (A<60)
CC[C@]1(O)C[C@@H]2CN(CCc3c([nH]c4ccccc34)[C@@](C(=O)OC)(c3cc4c(cc3OC)N(C)[C@H]3[C@@](O)(C(=O)NCCCCCCN)[C@H](O)[C@]5(CC)C=CCN6CC[C@]43[C@@H]65)C2)C1 [VBL-3Am-ALK(6)-NH2] |  |  | Ave. MPA Act (tubulin): C (C>100)
(±)-Cytallene | 20 | <1 | 
Nc1ccn([C@@H]2O[C@H](CO)[C@@H](O)[C@H]2F)c(=O)n1 [R4 = F, R5 = H, R3 = OH] | 300 | 30 | 
CC(=O)O[C@H]1C(=O)[C@]2(C)[C@@H](OC(=O)NCCCCCCn3c(=O)c(C)cn([C@@H]4C[C@H](O)[C@@H](CO)O4)c3=O)C[C@H]3OC[C@@]3(OC(C)=O)[C@H]2[C@H](OC(=O)c2ccccc2)[C@]2(O)C[C@H](OC(=O)[C@H](O)[C@@H](NC(=O)c3ccccc3)c3ccccc3)C(C)=C1C2(C)C [PXL-7Ca-ALK(6)-N3-αTHY] |  |  | Ave. MPA Act (tubulin): B (B=60-100)
CC(=O)O[C@H]1C(=O)[C@]2(C)[C@@H](OC(=O)NCCCCCCN)C[C@H]3OC[C@@]3(OC(C)=O)[C@H]2[C@H](OC(=O)c2ccccc2)[C@]2(O)C[C@H](OC(=O)[C@H](O)[C@@H](NC(=O)c3ccccc3)c3ccccc3)C(C)=C1C2(C)C [PXL-7Ca-ALK(6)-NH2] |  |  | Ave. MPA Act (tubulin): A (A<60)
Cc1cn([C@@H]2C[C@@H](O)[C@H](CO)O2)c(=O)[nH]c1=O [β-L-Thy] | 0.8 | 60 | 
CC[C@]1(O)C[C@@H]2CN(CCc3c([nH]c4ccccc34)[C@@](C(=O)OC)(c3cc4c(cc3OC)N(C)[C@H]3[C@@](O)(C(=O)NCCCCCCCCN)[C@H](O)[C@]5(CC)C=CCN6CC[C@]43[C@@H]65)C2)C1 [VBL-3Am-ALK(8)-NH2] |  |  | Ave. MPA Act (tubulin): B (B=60-100)
4-deacetyl-3-de-(methoxycarbonyl)-vinblastin-3-yl-N-{N′-Boc-2-[2-[2-[2-ethoxy]ethoxy]ethoxy]ethylamino}-aminocarbonyl) [VBL-3Am-PEG(11)-NH(B)] |  |  | Ave. MPA Act (tubulin): B (B=60-100)
Nc1ccn([C@H]2C[C@H](F)[C@@H](CO)O2)c(=O)n1 [R4 = H, R5 = H, R3 = F] | 60 | <1 | 
CC[C@]1(O)C[C@@H]2CN(CCc3c([nH]c4ccccc34)[C@@](C(=O)OC)(c3cc4c(cc3OC)N(C)[C@H]3[C@@](O)(C(=O)NCCCCCCn5c(=O)c(C)cn([C@H]6C[C@H](O)[C@@H](COP(=O)(O)O)O6)c5=O)[C@H](O)[C@]5(CC)C=CCN6CC[C@]43[C@@H]65)C2)C1 [VBL-3Am-ALK(6)-N3-PhTHY] |  |  | Ave. MPA Act (tubulin): C (C>100)

Compound | dCK [1] | TK2 (TK2) | also measured
Nc1nc(=O)n([C@H]2C[C@H](O)[C@@H](CO)O2)cc1Br [R2 = Br, X = C] | 20 | 40 | 
Nc1nc(Cl)nc2c1ncn2C1CC(CO)C(CO)O1 (centres unmarked) | 40 |  | 
Nc1ccn([C@@H]2C[C@@H](O)[C@H](CO)O2)c(=O)n1 [β-L-dC] |  | 70 | 
C=CCOC(=O)O[C@@H](C(=O)O[C@H]1C[C@@]2(O)[C@@H](OC(=O)c3ccccc3)[C@@H]3[C@]4(OC(C)=O)CO[C@@H]4C[C@H](O)[C@@]3(C)C(=O)[C@H](OC(C)=O)C(=C1C)C2(C)C)[C@@H](NC(=O)c1ccccc1)c1ccccc1 [PXL-2′Alloc] |  |  | Ave. MPA Act (tubulin): A (A<60)
Nc1nc(=O)n([C@H]2C[C@H](O)[C@@H](CO)O2)cc1C1CC1 [R2 = cyclopropyl, X = C] | 20 | <1 | 
Nc1ccn([C@H]2CC[C@@H](CO)O2)c(=O)n1 [R4 = H, R5 = H, R3 = H (ddCy, Zalcitabine)] | 30 | <1 | 
CC[C@]1(O)C[C@@H]2CN(CCc3c([nH]c4ccccc34)[C@@](C(=O)OC)(c3cc4c(cc3OC)N(C)[C@H]3[C@@](O)(C(=O)NN)[C@H](O)[C@]5(CC)C=CCN6CC[C@]43[C@@H]65)C2)C1 [Desacetylvinblastine monohydrazine] |  |  | Ave. MPA Act (tubulin): C (C>100)
CC(=O)O[C@H]1C(=O)[C@]2(C)[C@@H](OC(=O)NCCCCCCn3c(=O)c(C)cn([C@H]4C[C@H](O)[C@@H](COP(=O)(O)O)O4)c3=O)C[C@H]3OC[C@@]3(OC(C)=O)[C@H]2[C@H](OC(=O)c2ccccc2)[C@]2(O)C[C@H](OC(=O)[C@H](O)[C@@H](NC(=O)c3ccccc3)c3ccccc3)C(C)=C1C2(C)C [PXL-7Ca-ALK(6)-N3-PhTHY] |  |  | Ave. MPA Act (tubulin): B (B=60-100)
O=c1ccn([C@@H]2O[C@H](CO)[C@@H](O)[C@H]2O)c(=O)[nH]1 [R2 = H, R5 = OH (araU), araU] |  | 20 | 
Nc1ccn(C2CC(O)C(CO)O2)c(=O)n1 [α-L-dC] |  | 0.4 | 
Nc1ccn([C@@H]2O[C@H](CO)[C@@H](O)[C@H]2O)c(=O)n1 [R4 = OH, R5 = H, R3 = OH] |  | <1 | 
CC[C@]1(O)C[C@@H]2CN(CCc3c([nH]c4ccccc34)[C@@](C(=O)OC)(c3cc4c(cc3OC)N(C)[C@H]3[C@@](O)(C(=O)OC)[C@H](O)[C@]5(CC)C=CCN6CC[C@]43[C@@H]65)C2)C1 [Desacetyl vinblastine] |  |  | Ave. MPA Act (tubulin): C (C>100)
CC#Cc1cn([C@@H]2O[C@H](CO)[C@@H](O)[C@@H]2O)c(=O)[nH]c1=O |  | 30 | 
Nc1nc(=O)n([C@H]2C[C@H](O)[C@@H](CO)O2)cc1-c1ccoc1 [R2 = 3-furyl, X = C] | <1 | 50 | 
Nc1nc(=O)n([C@H]2C[C@H](O)[C@@H](CO)O2)cc1-c1ccco1 [R2 = 2-furyl, X = C] | 3 | 10 | 
O=c1[nH]c(=O)n([C@@H]2O[C@H](CO)[C@@H](O)[C@@H]2O)cc1-c1cccs1 [R2 = 2-thienyl, R5 = OH] |  | 6 | 
Nc1nc(=O)n([C@H]2C[C@H](O)[C@@H](CO)O2)cc1-c1ccncc1 [R2 = 4-pyridyl, X = C] | 5 | 2 | 
C[C@H]1C=C[C@@H](CO)O1 | 4 | <1 | 
Cc1cn([C@H]2CC[C@@H](CO)O2)c(=O)[nH]c1=O [β-ddT(3′-deoxyThy), 3′-deoxyThy] |  | 3.2 | 
Cc1cn([C@H]2C[C@H](O)[C@@H](CO)O2)c(=O)nc1N [R2 = CH3, X = C] |  | 40 | 
Nc1nc(=O)n([C@H]2C[C@H](O)[C@@H](CO)O2)cc1-c1cccnc1 [R2 = 3-pyridyl, X = C] | 4 | <1 | 
Nc1ccn([C@H]2CC[C@@H](CO)O2)c(=O)n1 [β-ddC(2′,3′-dideoxyC), 2′,3′-dideoxyC] | 7.1 |  | 
Cc1cn(C2CCC(CO)O2)c(=O)[nH]c1=O (stereo not drawn) [α-ddT] |  | 9.8 | 
